Measurements: BigSolDB 2.1

CCCSc1nc(N[C@@H]2C[C@H]2c2ccc(F)c(F)c2)c2nnn([C@@H]3C[C@H](OCCO)[C@@H](O)[C@H]3O)c2n1
solubility (mole fraction)
Conditions	273.15 K	278.15 K	283.15 K	288.15 K	293.15 K	298.15 K	303.15 K	308.15 K	313.15 K
in 2-butanone	0.0218	0.0269	0.0321	0.038	0.0439	0.051	0.0584	0.0673	0.0776
in acetonitrile	0.000876	0.00115	0.00144	0.00179	0.00217	0.0026	0.00309	0.00359	0.00416
in cyclohexanone	0.0265	0.0316	0.0374	0.0437	0.051	0.0578	0.0661	0.0744	0.0832
in ethanol	0.00315	0.0041	0.00503	0.00625	0.00747	0.00881	0.0105	0.0125	0.0149
in ethyl acetate	0.00409	0.00504	0.00608	0.00716	0.00855	0.0101	0.0118	0.0135	0.0157
in isobutanol	0.00148	0.00176	0.00209	0.00243	0.00284	0.00324	0.00373	0.00425	0.00484
in isopropanol	0.00251	0.00286	0.00325	0.00364	0.00404	0.00446	0.00496	0.00547	0.00599
in methanol	0.00494	0.00615	0.00741	0.0092	0.0114	0.014	0.0169	0.0203	0.0239
in n-butanol	0.00289	0.00363	0.0045	0.00542	0.00656	0.00768	0.00895	0.0103	0.0118
in n-octanol	0.0021	0.00233	0.00263	0.00292	0.00327	0.00367	0.00406	0.00456	0.0051
in n-propanol	0.00268	0.00327	0.00389	0.00462	0.00535	0.00612	0.00692	0.00776	0.00872
in toluene	3e-05	3.8e-05	4.9e-05	6.3e-05	8e-05	0.000102	0.00013	0.00016	0.000196
